# Experimental data as given in US6734190B2, “Dihydrodipyrazolopyridinylbenzamide and -sulfonamide inhibitors of B7-1” (Wyeth, priority 2002, dated 2004).
# Experiments:
# B7-1/CD28 = biological target: T1, B7-1/CD28 (Homo sapiens, UniProt P33681); experiment: CD28/B7-1 ELISA (B7-1/CD28 binding inhibition); details: CD28-Fc coated wells; B7-1-Fc-biotin/streptavidin-alkaline phosphatase detection complex; 1% DMSO
# T1 sequence (P33681 35-242 limits assumed): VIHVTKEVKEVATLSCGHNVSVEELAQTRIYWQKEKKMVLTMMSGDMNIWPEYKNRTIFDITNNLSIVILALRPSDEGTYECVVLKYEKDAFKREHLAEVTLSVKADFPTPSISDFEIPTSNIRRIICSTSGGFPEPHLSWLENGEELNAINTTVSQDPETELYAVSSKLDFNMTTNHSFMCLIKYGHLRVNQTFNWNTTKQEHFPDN
# Protocol: Evaluation of B7-1/CD28 Binding Inhibition for Test Compounds
# Wells are coated with 300 ng CD28-Fc in carbonate buffer (pH 9.4) overnight at 4° C., blocked with 1% bovine serum albumin in tris-buffered saline (TBS) for 1 h at 22° C. and washed 3 times in TBS prior to assay. The detection complex is formed as follows: B7-1-Fc-biotin, prepared using NHS-LC-biotin (Pierce #21335) according to the manufacturers instructions (4.1 moles biotinimole Fc), is added at 0.8 ug/ml to streptavidin-alkaline phosphatase (Caltag Sa1008) at 1:1000 in TBS. A solution of test compound in dimethylsulfoxide (1% final) are added to this complex and incubated 30 min at 22° C. Detection complex (+/−inhibitors) is then added to the CD28 coated wells for 25 min at 22° C., washed 5 times with TBS, developed with the colorimetric substrate pNPP (Pierce #34045) in diethanolamine/MgCl2 buffer (pH 9.5) and read at 405 nm. The inhibition constant (IC50) is calculated by subtracting background binding and comparing to uninhibited (DMSO alone) controls. The inhibition constant represents the concentration of test compound required to achieve 50% inhibition.
Compound,melting point,IC50 (B7-1/CD28) [nM]
"Cn1ncc2c3[nH]n(-c4cccc(C(=O)N5CCCC5)c4)c(=O)c3c(-c3cccc(C(F)(F)F)c3)nc21 [Example 11, 6-methyl-2-[3-(1-pyrrolidinylcarbonyl)phenyl]-4-[3-(trifluoromethyl)phenyl]-1,6-dihydrodipyrazolo[3,4-b:3,4-d]pyridin-3(2H)-one]",255 to 258 °C,44
"Cn1ncc2c3[nH]n(-c4cccc(C(=O)N5CCC[C@@H]5C(=O)O)c4)c(=O)c3c(-c3cccc(C(F)(F)F)c3)nc21 [Example 13, (2R)-1-[3-(6-methyl-3-oxo-4-[3-(trifluoromethyl)phenyl]-3,6-dihydrodipyrazolo[3,4-b:3,4-d]pyridin-2(1H)-yl)benzoyl]-2-pyrrolidinecarboxylic acid]",199 to 202 °C,20
Cn1ncc2c3[nH]n(-c4cccc(C(=O)NCc5ccc(N)cc5)c4)c(=O)c3c(-c3cccc(C(F)(F)F)c3)nc21 [Example 16],183 °C (dec.),57
COc1cc(CNC(=O)c2cccc(-n3[nH]c4c(c(-c5cccc(C(F)(F)F)c5)nc5c4cnn5C)c3=O)c2)ccc1O [Example 17],172 to 176 °C,55
"Cn1ncc2c3[nH]n(-c4cccc(C(=O)NCc5ccc(O)c(O)c5)c4)c(=O)c3c(-c3cccc(C(F)(F)F)c3)nc21 [Example 18, N-(3,4-dihydroxybenzyl)-3-(6-methyl-3-oxo-4-[3-(trifluoromethyl)phenyl]-3,6-dihydrodipyrazolo[3,4-b:3,4-d]pyridin-2(1H)-yl)benzamide]",177.7 to 179.8 °C,9
Cn1ncc2c3[nH]n(-c4ccc(Cl)c(C(=O)NCc5ccc(O)c(O)c5)c4)c(=O)c3c(-c3cccc(C(F)(F)F)c3)nc21 [Example 21],212 to 215 °C,22
"Cn1ncc2c3[nH]n(-c4ccc(Cl)c(C(=O)N5CCC[C@@H]5C(=O)O)c4)c(=O)c3c(-c3cccc(C(F)(F)F)c3)nc21 [Example 22, 1-{2-chloro-5-[6-methyl-3-oxo-4-[3-(trifluoromethyl)pheny]-3,6-dihydrodipyrazolo[3,4-b:3′,4′-d]pyridin-2(1H)-yl]benzoyl}-D-proline]",214 to 218 °C,44
CC(O)c1cccc(NC(=O)c2ccc(-n3[nH]c4c(c(-c5cccc(C(F)(F)F)c5)nc5c4cnn5C)c3=O)cc2F)c1 (stereo not drawn) [Example 24],> 350 °C,110
CC(O)c1cccc(NC(=O)c2ccc(-n3[nH]c4c(c(-c5cccc(C(F)(F)F)c5)nc5c4cnn5C)c3=O)cc2)c1 (stereo not drawn) [Example 25],251 to 254 °C,3
COC(=O)C1CCN(C(=O)c2ccc(-n3[nH]c4c(c(-c5cccc(C(F)(F)F)c5)nc5c4cnn5C)c3=O)cc2)CC1 [Example 26],187 °C (dec.),90
CN1CCN(C(=O)c2ccc(-n3[nH]c4c(c(-c5cccc(C(F)(F)F)c5)nc5c4cnn5C)c3=O)cc2)CC1 [Example 27],191 to 194 °C,500
Cn1ncc2c3[nH]n(-c4ccc(C(=O)NCCCO)cc4)c(=O)c3c(-c3cccc(C(F)(F)F)c3)nc21 [Example 28],193 to 195 °C,98
"Cn1ncc2c3[nH]n(-c4ccc(C(=O)Nc5ccccc5O)cc4)c(=O)c3c(-c3cccc(C(F)(F)F)c3)nc21 [Example 74, N-(2-hydroxyphenyl)-4-{6-methyl-3-oxo-3-[3-(trfluoromethyl)phenyl]-3,6-dihydrodipyrazolo[3,4-b:3′,4′-d]pyridin-2(1H)-yl}benzamide]",,17
Cn1ncc2c3[nH]n(-c4ccc(C(=O)NCC5CC5)cc4)c(=O)c3c(-c3cccc(C(F)(F)F)c3)nc21 [Example 75],,107
CC(O)CNC(=O)c1ccc(-n2[nH]c3c(c(-c4cccc(C(F)(F)F)c4)nc4c3cnn4C)c2=O)cc1 (stereo not drawn) [Example 76],,50
Cn1ncc2c3[nH]n(-c4ccc(C(=O)N5CCSCC5)cc4)c(=O)c3c(-c3cccc(C(F)(F)F)c3)nc21 [Example 77],,140
CC(C)c1ccc(NC(=O)c2ccc(-n3[nH]c4c(c(-c5cccc(C(F)(F)F)c5)nc5c4cnn5C)c3=O)cc2)cc1 [Example 78],,120
Cn1ncc2c3[nH]n(-c4ccc(C(=O)Nc5cccnc5)cc4)c(=O)c3c(-c3cccc(C(F)(F)F)c3)nc21 [Example 79],,180
COC(CN(C)C(=O)c1ccc(-n2[nH]c3c(c(-c4cccc(C(F)(F)F)c4)nc4c3cnn4C)c2=O)cc1)OC [Example 80],,170
Cn1ncc2c3[nH]n(-c4ccc(C(=O)N5CCCC5)cc4)c(=O)c3c(-c3cccc(C(F)(F)F)c3)nc21 [Example 81],,110

Compound,melting point,IC50 (B7-1/CD28) [nM]
Cn1ncc2c3[nH]n(-c4ccc(C(=O)Nc5ccc(F)c(F)c5)cc4)c(=O)c3c(-c3cccc(C(F)(F)F)c3)nc21 [Example 82],,120
Cn1ncc2c3[nH]n(-c4ccc(C(=O)N5CCSC5)cc4)c(=O)c3c(-c3cccc(C(F)(F)F)c3)nc21 [Example 83],,110
Cc1c(CO)cccc1NC(=O)c1ccc(-n2[nH]c3c(c(-c4cccc(C(F)(F)F)c4)nc4c3cnn4C)c2=O)cc1 [Example 84],,90
CN(CCC(N)=O)C(=O)c1ccc(-n2[nH]c3c(c(-c4cccc(C(F)(F)F)c4)nc4c3cnn4C)c2=O)cc1 [Example 85],,1800
Cn1ncc2c3[nH]n(-c4ccc(C(=O)Nc5ccccc5CO)cc4)c(=O)c3c(-c3cccc(C(F)(F)F)c3)nc21 [Example 86],,40
Cn1ncc2c3[nH]n(-c4ccc(C(=O)Nc5ccc(CO)cc5)cc4)c(=O)c3c(-c3cccc(C(F)(F)F)c3)nc21 [Example 87],,44
CCN(CC)C(=O)C1CCCN(C(=O)c2ccc(-n3[nH]c4c(c(-c5cccc(C(F)(F)F)c5)nc5c4cnn5C)c3=O)cc2)C1 (stereo not drawn) [Example 88],,290
CN(C)CCCNC(=O)c1ccc(-n2[nH]c3c(c(-c4cccc(C(F)(F)F)c4)nc4c3cnn4C)c2=O)cc1 [Example 90],,160
Cn1ncc2c3[nH]n(-c4ccc(C(=O)NCc5ccc(F)cc5)cc4)c(=O)c3c(-c3cccc(C(F)(F)F)c3)nc21 [Example 91],,67
Cn1ncc2c3[nH]n(-c4ccc(C(=O)N5CCC(O)CC5)cc4)c(=O)c3c(-c3cccc(C(F)(F)F)c3)nc21 [Example 94],,1200
Cn1ncc2c3[nH]n(-c4ccc(C(=O)N5CCCC(O)C5)cc4)c(=O)c3c(-c3cccc(C(F)(F)F)c3)nc21 (stereo not drawn) [Example 95],,390
Cn1ncc2c3[nH]n(-c4ccc(C(=O)NCCCCCO)cc4)c(=O)c3c(-c3cccc(C(F)(F)F)c3)nc21 [Example 96],,92
CCC(O)c1cccc(NC(=O)c2ccc(-n3[nH]c4c(c(-c5cccc(C(F)(F)F)c5)nc5c4cnn5C)c3=O)cc2)c1 (stereo not drawn) [Example 100],,800
"Cn1ncc2c3[nH]n(-c4ccc(S(=O)(=O)NCCCCCO)cc4)c(=O)c3c(-c3cccc(C(F)(F)F)c3)nc21 [Example 102, N-(5-Hydroxypentyl)-4-{6-methyl-3-oxo-4-[3-(trifluoromethyl)phenyl]-3,6-dihydrodipyrazolo[3,4-b:3′,4′-d]pyridin-2(1H)-yl}benzenesulfonamide]",,670
"Cn1ncc2c3[nH]n(-c4ccc(S(=O)(=O)NCc5ccccc5)cc4)c(=O)c3c(-c3cccc(C(F)(F)F)c3)nc21 [Example 103, N-benzyl-4-[6-methyl-3-oxo-4-(3-trifluoromethyl-phenyl)-3,6-dihydro-1H-1,2,5,6,7-pentaaza-as-indacen-2-yl]-benzenesulfonamide]",,1500
"Cn1ncc2c3[nH]n(-c4ccc(S(=O)(=O)NCCO)cc4)c(=O)c3c(-c3cccc(C(F)(F)F)c3)nc21 [Example 104, N-(2-hydroxyethyl)-4-(6-methyl-3-oxo-4-[3-(trifluoromethyl)phenyl]-3,6-dihydrodipyrazolo[3,4-b:3,4-d]pyridin-2(1H)-yl)benzenesulfonamide]",,950
"COC(=O)CNS(=O)(=O)c1ccc(-n2[nH]c3c(c(-c4cccc(C(F)(F)F)c4)nc4c3cnn4C)c2=O)cc1 [Example 105, methyl ({[4-(6-methyl-3-oxo-4-[3-(trifluoromethyl)phenyl]-3,6-dihydrodipyrazolo[3,4-b:3,4-d]pyridin-2(1H)-yl)phenyl]sulfonyl}amino)acetate]",,340
"Cn1ncc2c3[nH]n(-c4ccc(S(=O)(=O)NCC5CC5)cc4)c(=O)c3c(-c3cccc(C(F)(F)F)c3)nc21 [Example 106, N-cyclopropylmethyl-4-[6-methyl-3-oxo-4-(3-trfluoromethyl-phenyl)-3,6-dihydro-1H-1,2,5,6,7-pentaaza-as-indacen-2-yl]-benzenesulfonamide]",,900
"Cn1ncc2c3[nH]n(-c4ccc(S(=O)(=O)NCC(=O)O)cc4)c(=O)c3c(-c3cccc(C(F)(F)F)c3)nc21 [Example 107, ({[4-(6-methyl-3-oxo-4-[3-(trifluoromethyl)phenyl]-3,6-dihydrodipyrazolo[3,4-b:3,4-d]pyridin-2(1H)-yl)phenyl]sulfonyl}amino)acetic acid]",,450
